According to patent publication US7423177B2, “Carboxamide derivatives as therapeutic agents” (TransTech Pharma, Inc., priority 2001, dated 2008):
Where a name gives a salt, the structure may show the parent alone.

What was measured:
[1] = molecular target: T1, RAGE (sRAGE) binding to S100b (Homo sapiens, UniProt Q15109); test: ELISA assay: inhibition of sRAGE binding to plate-bound S100b; conditions: ligand S100b coated on plate, concentration at which 50% signal has been inhibited, read-out: ELISA Assay IC50 (μM) S-100b
T1 construct: extracellular domain can be isolated by proteolysis of RAGE to generate soluble RAGE (sRAGE) comprised of the V and C domains
T1 sequence (Q15109 23-342 limits assumed): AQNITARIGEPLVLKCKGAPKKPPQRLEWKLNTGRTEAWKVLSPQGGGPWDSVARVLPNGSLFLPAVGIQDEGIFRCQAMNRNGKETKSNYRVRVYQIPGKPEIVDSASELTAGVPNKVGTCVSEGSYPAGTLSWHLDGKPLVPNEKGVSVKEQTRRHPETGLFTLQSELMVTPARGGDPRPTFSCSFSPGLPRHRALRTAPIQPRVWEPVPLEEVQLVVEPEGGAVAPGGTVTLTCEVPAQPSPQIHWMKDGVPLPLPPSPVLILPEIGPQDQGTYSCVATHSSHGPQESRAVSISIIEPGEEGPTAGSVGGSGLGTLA
Procedure: (§1) This method is also described and claimed in co-pending U.S. Ser. No. 09/799,152 filed Mar. 5, 2001.
(§2) S100b, β-amyloid and CML (500 ng/100 μL/well) in 100 mM sodium bicarbonate/sodium carbonate buffer (pH 9.8) is loaded onto the wells of a NUNC Maxisorp flat bottom 96 -well microtitre plate. The plate is incubated at 4° C. overnight. The wells are aspirated and treated with 50 mM imidazole buffer saline (pH 7.2) (with 1 mM CaCl2/MgCl2) containing 1% bovine serum albumin (BSA) (300 μL/well) for two h at 37° C.
(§3) Test compounds are dissolved in nanopure water (concentration: 10-100 μM). DMSO may be used as co-solvent. 25 μL of test compound solution in 2% DMSO is added, along with 75 μL SRAGE (4.0×10^−4 mg/mL FAC) to each well and samples are incubated for 1 h at 37° C. The wells are washed 3 times with 155 mM NaCl pH 7.2 buffer saline and are soaked 10 seconds between each wash.
(§4) Non-Radioactive Binding is Performed by Adding:
(§5) 10 μL Biotinylated goat F(ab′)2 Anti-mouse IgG. (8.0×10^−4 mg/mL, FAC)
(§6) 10 μL Alk-phos-Sterptavidin (3×10^−3 mg/mL FAC)
(§7) 10 μL Polyclonal antibody for sRAGE (FAC 6.0×10^−3 mg/mL)
(§8) to 5 mL 50 mM imidazole buffer saline (pH 7.2) containing 0.2% bovine serum albumin and 1 mM […]. The mixture is incubated for 30 minutes at 37° C. 100 μL complex is added to each well and incubation is allowed to proceed at rt for 1 h. Wells are washed 3 times with wash buffer and soaked 10 s between each wash. 100 μL 1 mg/mL (pNPP) in 1 M diethanolamine (pH adjusted to 9.8 with HCl) is added. Color is allowed to develop in the dark for 1 to 2 h at rt. The reaction is quenched with 10 μL of stop solution (0.5 N NaOH in 50% ethanol) and the absorbance is measured spectrophotometrically with a microplate reader at 405 nm.

[2] = molecular target: T2, RAGE (sRAGE) binding to Carboxymethyl Lysine (CML) (Homo sapiens, UniProt Q15109); test: ELISA assay: inhibition of sRAGE binding to plate-bound CML; conditions: ligand CML coated on plate, concentration at which 50% signal has been inhibited
T2 construct: extracellular domain can be isolated by proteolysis of RAGE to generate soluble RAGE (sRAGE) comprised of the V and C domains
T2 sequence (Q15109 23-342 limits assumed): as above
Procedure: as §1, §2, §3, §4, §5, §6, §7, §8

[3] = molecular target: T3, RAGE (sRAGE) binding to β-amyloid (Homo sapiens, UniProt Q15109); test: ELISA assay: inhibition of sRAGE binding to plate-bound β-amyloid; conditions: ligand β-amyloid coated on plate, concentration at which 50% signal has been inhibited
T3 construct: extracellular domain can be isolated by proteolysis of RAGE to generate soluble RAGE (sRAGE) comprised of the V and C domains
T3 sequence (Q15109 23-342 limits assumed): as above
Procedure: as §1, §2, §3, §4, §5, §6, §7, §8

Row | Structure (SMILES) | IC50 [1] | IC50 [2] | IC50 [3]
1 | CCN(CC)CCCOc1ccc(NC(=O)CCc2ccc(OCc3ccccc3)cc2)c(OCCCN(CC)CC)c1 [Example 1, 3-(4-Benzyloxyphenyl)propionic Acid 2,4-Di-(3-Diethylamino-1-propoxy)aniline Amide] | 1 to 5 µM | – | –
2 | CCN(CC)CCCOc1ccc(NC(=O)CC(NC(=O)OCC2c3ccccc3-c3ccccc32)c2cccc(OC(C)(C)C)c2)c(OCCCN(CC)CC)c1 (stereo not drawn) [Example 2, 3-(3-Tert-butoxyphenyl)-3-(9-fluorenylmethoxycarbonylamino)propionic Acid 2,4-Di-(3-diethylaminopropoxy)aniline Amide] | < 0.5 µM | 0.5 to 1 µM | 1 to 5 µM
3 | CCN(CC)CCCOc1ccc(NC(=O)CC(N)c2cccc(OC(C)(C)C)c2)c(OCCCN(CC)CC)c1 (stereo not drawn) [Example 3, 3-(3-Tert-butoxyphenyl)-3-aminopropionic Acid 2,4-Di-(3-diethylaminopropoxy)aniline Amide] | 1 to 5 µM | 1 to 5 µM | 1 to 5 µM
4 | CCCCOc1cc(C(=O)OCCN(CC)CC)ccc1NC(=O)C(N)CC1CCOCC1 (stereo not drawn) [Example 4, 3-(4-Tetrahydropyranyl)-2-aminopropionic Acid 4-Diethylaminoethoxycarbonyl-2-butoxyaniline Amide Dihydrochloride] | 10 to 20 µM | – | –
5 | CCN(CC)CCCOc1ccc(NC(=O)[C@@H]2C[C@@H](OC(C)(C)C)CN2)c(OCCCN(CC)CC)c1 [Example 5, (2S, 4R)-4-Tert-Butoxypyrrolidine-2-carboxylic acid 2,4-Di(3-diethylamino-1-propoxy)aniline Amide] | 1 to 5 µM | – | –
6 | CCCCOc1cc(C(=O)OCCN(CC)CC)ccc1NC(=O)[C@@H]1Cc2ccccc2CN1 [Example 6, (3S)-1,2,3,4-Tetrahydroisoquinoline-3-carboxylic Acid 4-Diethylaminoethoxycarbonyl-2-butoxyaniline Amide Dihydrochloride] | 10 to 20 µM | 5 to 10 µM | 10 to 20 µM
7 | CCCCOc1cc(C(=O)OCCN(CC)CC)ccc1NC(=O)[C@@H](Cc1ccc(OCc2ccccc2)cc1)n1ccnc1 [Example 7, (R)-3-(4-Benzyloxyphenyl)-2-(1-imidazolyl)propionic Acid 4-Diethylaminoethoxycarbonyl-2-butoxyaniline Amide] | 0.5 to 1 µM | 1 to 5 µM | 1 to 5 µM
8 | CCN(CC)CCCOc1ccc(NC(=O)CC(NC(=O)OCC2c3ccccc3-c3ccccc32)c2ccc(OC(C)(C)C)cc2)c(OCCCN(CC)CC)c1 (stereo not drawn) [Example 8, 3-(4-Tert-butoxyphenyl)-3-(9-fluorenylmethoxycarbonylamino)propionic Acid 2,4-Di-(3-diethylaminopropoxy)aniline Amide] | 0.5 to 1 µM | 0.5 to 1 µM | 0.5 to 1 µM
9 | CCN(CC)CCCOc1ccc(NC(=O)CC(N)c2ccc(OC(C)(C)C)cc2)c(OCCCN(CC)CC)c1 (stereo not drawn) [Example 9, 3-amino-3-(4-tert-butoxyphenyl)propionic Acid 2,4-Di-(3-diethylaminopropoxy)anline Amide] | 1 to 5 µM | 1 to 5 µM | 1 to 5 µM
10 | CCN(CC)CCCOc1ccc(NC(=O)CC(NC(=O)OCC2c3ccccc3-c3ccccc32)c2ccccc2OC(C)(C)C)c(OCCCN(CC)CC)c1 (stereo not drawn) [Example 10, 3-(9-fluorenylmethoxycarbonylamino)-3-(2-tert-butoxyphenyl)propionic Acid 2,4-Di-(3-diethylaminopropoxy)aniline Amide] | 0.5 to 1 µM | 1 to 5 µM | 1 to 5 µM
11 | CCN(CC)CCCOc1ccc(NC(=O)CC(N)c2ccccc2OC(C)(C)C)c(OCCCN(CC)CC)c1 (stereo not drawn) [Example 11, 3-amino-3-(2-tert-butoxyphenyl)propionic Acid 2,4-Di-(3-diethylaminopropoxy)aniline Amide] | 1 to 5 µM | 1 to 5 µM | 1 to 5 µM
12 | CCN(CC)CCCOc1ccc(NC(=O)CC(NC(C)C)c2cccc(OC(C)(C)C)c2)c(OCCCN(CC)CC)c1 (stereo not drawn) [Example 12, 3-Isopropylamino-3-(3-tert-butoxyphenyl)propionic Acid 2,4-Di-(3-diethylaminopropoxy)aniline Amide] | 1 to 5 µM | 0.5 to 1 µM | 1 to 5 µM
13 | CCN(CC)CCCOc1ccc(N(Cc2ccccc2)C(=O)[C@@H](Cc2ccc(OCc3ccccc3)cc2)NC(=O)OC(C)(C)C)cc1 [Example 13, (2R)-2-tert-butoxycarbonylamino-3-[4-(benzyloxy)phenyl]propionic Acid 4-(3-diethylaminopropoxy)-N-benzylaniline Amide] | 5 to 10 µM | 5 to 10 µM | 5 to 10 µM
14 | CCN(CC)CCCOc1ccc(N(CC2CCCC2)C(=O)[C@@H](Cc2ccc(OCc3ccccc3)cc2)NC(=O)OC(C)(C)C)cc1 [Example 14, (2R)-2-tert-butoxycarbonylamino-3-[4-(benzyloxy)phenyl]propionic Acid 4-(3-diethylaminopropoxy)-N-cyclopentylmethylaniline Amide] | 1 to 5 µM | 1 to 5 µM | 1 to 5 µM
15 | CCN(CC)CCCOc1ccc(N(CC2CCCCC2)C(=O)[C@H](N)Cc2ccc(OCc3ccccc3)cc2)cc1 [Example 16, (2R)-2-amino-3-[4-(benzyloxy)phenyl]propionic Acid 4-(3-diethylaminopropoxy)-N-cyclohexylmethylaniline Amide] | 1 to 5 µM | 1 to 5 µM | 1 to 5 µM
16 | CCN(CC)CCCOc1ccc(N(CC2CCCC2)C(=O)[C@H](N)Cc2ccc(OCc3ccccc3)cc2)cc1 [Example 17, (2R)-2-amino-3-[4-(benzyloxy)phenyl]propionic Acid 4-(3-diethylaminopropoxy)-N-cyclopentylmethylaniline Amide] | 5 to 10 µM | 10 to 20 µM | 10 to 20 µM
17 | CCCCN(C(=O)[C@@H](Cc1ccc(OCc2ccccc2)cc1)NC(=O)OC(C)(C)C)c1ccc(OCCCN(CC)CC)cc1 [Example 18, (2R)-2-tert-butoxycarbonylamino-3-[4-(benzyloxy)phenyl]propionic Acid 4-(3-diethylaminopropoxy)-N-butylaniline Amide] | 1 to 5 µM | 1 to 5 µM | 1 to 5 µM
18 | CCCCN(C(=O)[C@H](N)Cc1ccc(OCc2ccccc2)cc1)c1ccc(OCCCN(CC)CC)cc1 [Example 19, (2R)-2-amino-3-[4-(benzyloxy)phenyl]propionic Acid 4-(3-diethylaminopropoxy)-N-butylaniline Amide] | 1 to 5 µM | 1 to 5 µM | 1 to 5 µM
19 | CCCCN(C(=O)[C@@H](Cc1ccc(OCc2ccccc2)cc1)NC(=O)OC(C)(C)C)c1cccc(OCCCN(CC)CC)c1 [Example 20, (2R)-2-tert-butoxycarbonylamino-3-[4-(benzyloxy)phenyl]propionic Acid 3-(3-diethylaminopropoxy)-N-butylaniline Amide] | 1 to 5 µM | 1 to 5 µM | 1 to 5 µM
20 | CCCCN(C(=O)[C@H](N)Cc1ccc(OCc2ccccc2)cc1)c1cccc(OCCCN(CC)CC)c1 [Example 21, (2R)-2-amino-3-[4-(benzyloxy)phenyl]propionic Acid 3-(3-diethylaminopropoxy)-N-butylaniline Amide] | 1 to 5 µM | 1 to 5 µM | 1 to 5 µM
